Assay results taken from ChEMBL document CHEMBL5131447, “Discovery of orexin 2 receptor selective and dual orexin receptor agonists based on the tetralin structure: Switching of receptor selectivity by chirality on the tetralin ring” (Bioorg Med Chem Lett, 2022).
pEC50: −log10 of the molar value.

Tests used:
Homo sapiens = organism: Homo sapiens; assay: Selectivity index, ratio of EC50 for agonist activity at OX1R (unknown origin) to EC50 for agonist activity at OX2R (unknown origin)
Orexin receptor type 2 = molecular target: T1, Orexin receptor type 2 (Homo sapiens, UniProt O43614); assay: Agonist activity at OX2R (unknown origin); type: functional
T1 sequence (O43614 whole entry): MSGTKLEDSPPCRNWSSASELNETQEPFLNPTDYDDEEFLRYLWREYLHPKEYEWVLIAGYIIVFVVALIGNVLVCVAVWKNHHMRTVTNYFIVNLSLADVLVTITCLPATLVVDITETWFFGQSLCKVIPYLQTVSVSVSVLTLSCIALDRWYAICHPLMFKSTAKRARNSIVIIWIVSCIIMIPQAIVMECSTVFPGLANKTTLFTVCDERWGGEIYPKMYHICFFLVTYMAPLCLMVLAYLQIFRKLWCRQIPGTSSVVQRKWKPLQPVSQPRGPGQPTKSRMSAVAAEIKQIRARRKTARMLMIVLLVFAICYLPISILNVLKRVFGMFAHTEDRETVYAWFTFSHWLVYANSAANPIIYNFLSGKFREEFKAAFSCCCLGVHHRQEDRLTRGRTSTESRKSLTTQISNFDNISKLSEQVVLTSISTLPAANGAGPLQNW

[1] = molecular target: T2, Orexin/Hypocretin receptor type 1 (Homo sapiens, UniProt O43613); assay: Agonist activity at OX1R (unknown origin); type: functional
T2 sequence (O43613 whole entry): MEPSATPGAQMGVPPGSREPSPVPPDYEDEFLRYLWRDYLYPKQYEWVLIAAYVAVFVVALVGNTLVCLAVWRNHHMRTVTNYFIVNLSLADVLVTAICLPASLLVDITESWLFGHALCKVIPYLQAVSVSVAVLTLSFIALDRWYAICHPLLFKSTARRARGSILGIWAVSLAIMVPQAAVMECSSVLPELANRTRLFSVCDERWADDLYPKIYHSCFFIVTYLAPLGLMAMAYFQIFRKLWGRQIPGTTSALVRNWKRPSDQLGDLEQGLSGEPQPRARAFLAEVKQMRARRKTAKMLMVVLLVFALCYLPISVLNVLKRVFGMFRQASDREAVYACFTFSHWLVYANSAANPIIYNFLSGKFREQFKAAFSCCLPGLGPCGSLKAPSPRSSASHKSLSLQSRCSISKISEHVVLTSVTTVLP

[2] = molecular target: T3, Orexin/Hypocretin receptor type 1 (Homo sapiens) (UniProt O43613); assay: Agonist activity at OX1R (unknown origin) assessed as maximum efficacy at 10 uM relative to control; type: functional
T3 sequence (whole entry): T2 sequence (O43613 whole entry)

[3] = molecular target: T4, Orexin receptor type 2 (Homo sapiens) (UniProt O43614); assay: Agonist activity at OX2R (unknown origin) assessed as maximum efficacy at 10 uM relative to control; type: functional
T4 sequence (whole entry): T1 sequence (O43614 whole entry)

Row | Molecule | Ratio EC50 (Homo sapiens) | pEC50 (Orexin receptor type 2) | pEC50 [1] | Emax ([2]; filed as agonist) [%] | Emax [2] [%] | Emax [3] [%]
1 | COc1cccc(CC(=O)NC2CCCc3ccc(NS(=O)(=O)c4cc(-c5cccc(C(=O)N(C)C)c5)ccc4OC)cc32)c1 (stereo not given) | 8.61 | 7.58 | 6.64 |  |  | 
2 | COc1ccc(CC(=O)N(C)C2CCCc3ccc(NS(=O)(=O)c4cc(-c5cccc(C(=O)N(C)C)c5)ccc4OC)cc32)cc1 (stereo not given) |  |  | 6.92 |  |  | 
3 | COc1ccc(-c2cccc(C(=O)N(C)C)c2)cc1S(=O)(=O)Nc1ccc2c(c1)C(N(C)C(=O)CCc1ccccc1)CCC2 (stereo not given) | 2.95 | 6.90 | 6.43 |  |  | 
4 | COc1cccc(CC(=O)N(C)c2cccc3ccc(NS(=O)(=O)c4cc(-c5cccc(C(=O)N(C)C)c5)ccc4OC)cc23)c1 | 1.79 | 6.65 | 6.40 |  |  | 
5 | COc1ccc(CN(C)C2CCc3ccc(NS(=O)(=O)c4cc(-c5cccc(C(=O)N(C)C)c5)ccc4OC)cc32)cc1 (stereo not given) | 87.8 | 8.49 | 6.54 |  |  | 
6 | COc1ccc(-c2cccc(C(=O)N(C)C)c2)cc1S(=O)(=O)Nc1ccc2c(c1)C(N(C)C(=O)C1CCCCC1)CCC2 (stereo not given) |  | 6.08 | < 5.00 | 44.3 |  | 
7 | COc1ccccc1CC(=O)N(C)C1CCCc2ccc(NS(=O)(=O)c3cc(-c4cccc(C(=O)N(C)C)c4)ccc3OC)cc21 (stereo not given) | 25.7 | 8.44 | 7.04 |  |  | 
8 | CCN(C(=O)Cc1cccc(OC)c1)C1CCCc2ccc(NS(=O)(=O)c3cc(-c4cccc(C(=O)N(C)C)c4)ccc3OC)cc21 (stereo not given) | 18.4 | 7.71 | 6.45 |  |  | 
9 | COC(=O)N1CCC[C@H](NS(C)(=O)=O)[C@@H]1CO[C@H]1CC[C@@H](c2ccccc2)CC1 [DANAVOREXTON] |  |  | < 4.52 |  |  | 
10 | H-MTLIGAAHNGSAQLLRQLRGQLGPPGSR-NH2 | 41.7 |  |  |  |  | 
11 | COc1cccc(CC(=O)N(C)[C@@H]2CCCc3ccc(NS(=O)(=O)c4cc(-c5cccc(C(=O)N(C)C)c5)ccc4OC)cc32)c1 | 23.3 | 9.24 | 7.87 |  |  | 
12 | CCCN(C(=O)Cc1cccc(OC)c1)C1CCCc2ccc(NS(=O)(=O)c3cc(-c4cccc(C(=O)N(C)C)c4)ccc3OC)cc21 (stereo not given) | 89.6 | 7.36 | 5.41 |  |  | 
13 | COc1cccc(CC(=O)OC2CCCc3ccc(NS(=O)(=O)c4cc(-c5cccc(C(=O)N(C)C)c5)ccc4OC)cc32)c1 (stereo not given) | 14 | 6.38 | 5.24 |  |  | 
14 | CCOc1cccc(CC(=O)N(C)C2CCCc3ccc(NS(=O)(=O)c4cc(-c5cccc(C(=O)N(C)C)c5)ccc4OC)cc32)c1 (stereo not given) | 25.8 | 8.67 | 7.26 |  |  | 
15 | COc1cccc(CC(=O)N(CC2CC2)C2CCCc3ccc(NS(=O)(=O)c4cc(-c5cccc(C(=O)N(C)C)c5)ccc4OC)cc32)c1 (stereo not given) |  | 7.11 | < 5.00 |  | 18.7 | 
16 | COc1ccc(-c2cccc(C(=O)N(C)C)c2)cc1S(=O)(=O)Nc1ccc2c(c1)C(N(C)C(=O)Cc1cccc(N(C)C)c1)CCC2 (stereo not given) | 15.9 | 8.25 | 7.05 |  |  | 
17 | COc1ccc(-c2cccc(C(=O)N(C)C)c2)cc1S(=O)(=O)Nc1ccc2c(c1)C(N(C)C(=O)Nc1ccccc1)CCC2 (stereo not given) |  |  | 5.49 |  |  | 
18 | COc1cccc(CC(=O)N(C)c2cccc3c2CC(NS(=O)(=O)c2cc(-c4cccc(C(=O)N(C)C)c4)ccc2OC)CC3)c1 (stereo not given) |  | < 5.00 | 5.26 |  |  | 39.9
19 | COc1ccc(-c2cccc(C(=O)N(C)C)c2)cc1S(=O)(=O)Nc1ccc2c(c1)C(N(C)C(=O)Cc1cccc(F)c1)CCC2 (stereo not given) | 13.3 | 8.19 | 7.06 |  |  | 
20 | COc1ccc(-c2cccc(C(=O)N(C)C)c2)cc1S(=O)(=O)Nc1ccc2c(c1)C(N(C)C(=O)c1ccccc1)CCC2 (stereo not given) |  | 6.21 | < 5.00 |  | 8.61 | 
21 | COc1ccc(-c2cccc(C(=O)N(C)C)c2)cc1S(=O)(=O)Nc1ccc2c(c1)C(N(C)C(=O)Cc1cccc(O)c1)CCC2 (stereo not given) | 12.5 | 7.24 | 6.15 |  |  | 
22 | COc1ccc(-c2cccc(C(=O)N(C)C)c2)cc1S(=O)(=O)Nc1ccc2c(c1)C(N(C)C(=O)Cc1cccnc1)CCC2 (stereo not given) | 7.83 | 6.82 | 5.93 |  |  | 
23 | COc1cccc(CC(=O)N(C)[C@H]2CCCc3ccc(NS(=O)(=O)c4cc(-c5cccc(C(=O)N(C)C)c5)ccc4OC)cc32)c1 | 461 | 8.57 | 5.91 |  |  | 
24 | COc1cccc(CC(=O)N(C)C2CCCc3ccc(NS(=O)(=O)c4cc(-c5cccc(C(=O)N(C)C)c5)ccc4OC)cc32)c1 (racemic) | 20.3 | 8.82 | 7.51 |  |  | 
25 | COc1ccc(-c2cccc(C(=O)N(C)C)c2)cc1S(=O)(=O)Nc1ccc2c(c1)C(N(C)C(=O)Cc1ccccc1)CCC2 (stereo not given) | 10.5 | 7.97 | 6.95 |  |  | 
26 | CCCCC(=O)N(C)C1CCCc2ccc(NS(=O)(=O)c3cc(-c4cccc(C(=O)N(C)C)c4)ccc3OC)cc21 (stereo not given) | 2.18 | 5.72 | 5.38 |  |  | 
